Publication PMC5607274, “An iterative compound screening contest method for identifying target protein inhibitors using the tyrosine-protein kinase Yes” (Scientific Reports, 2017)

Target: T1, human recombinant Yes [a.a. 2–543 (end)] (Homo sapiens, UniProt P07947)
T1 construct: human recombinant Yes [a.a; 2–543 (end)]; purchased BPS Bioscience 40488
Assay: ADP-Glo kinase assay, inhibition rates of Yes phosphorylation activity (first and second screening)
Assay type: biochemical
Conditions: 10 μmol L−1 compound; for First screening IR (inhibition rate): mean of n = 4 wells; for Second screening IR (inhibition rate): dissolved from fresh powder, n = 4
How it was run: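 Hits from a first pass were rescreened after re-dissolution from fresh powder. The first pass reported the mean inhibition rate of quadruplicate wells per compound. Activity was that of recombinant human Yes [a.a. 2–543] kinase, read out with the ADP-Glo ADP-detection method.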

T1 sequence (P07947 2-543): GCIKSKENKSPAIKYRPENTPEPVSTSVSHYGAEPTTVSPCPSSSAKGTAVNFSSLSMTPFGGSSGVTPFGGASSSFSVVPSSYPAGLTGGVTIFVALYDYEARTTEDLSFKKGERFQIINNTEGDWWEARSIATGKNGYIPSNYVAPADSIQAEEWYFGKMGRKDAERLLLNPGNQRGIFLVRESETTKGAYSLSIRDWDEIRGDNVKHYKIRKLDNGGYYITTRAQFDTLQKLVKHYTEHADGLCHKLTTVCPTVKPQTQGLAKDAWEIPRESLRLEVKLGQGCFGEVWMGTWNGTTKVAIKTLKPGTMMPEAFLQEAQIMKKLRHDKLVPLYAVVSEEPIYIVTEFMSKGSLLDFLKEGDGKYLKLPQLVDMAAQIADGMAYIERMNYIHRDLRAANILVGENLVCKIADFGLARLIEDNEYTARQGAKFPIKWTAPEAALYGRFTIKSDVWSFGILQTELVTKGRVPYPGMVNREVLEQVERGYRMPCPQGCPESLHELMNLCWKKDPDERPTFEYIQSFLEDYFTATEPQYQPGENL

Structure (SMILES) | First screening IR (inhibition rate) [%] | Second screening IR (inhibition rate) [%]
COc1cc(/C=C2/CC(C)Cc3c2nc2ccccc2c3C(=O)O)cc(Cl)c1O (stereo not shown) [Compound Z46108144] | 3 | 
CC(Sc1ncc(CO)n1C)c1cn(-c2ccccc2)nn1 (stereo not shown) [Compound Z1419493384] | -8 | 
CC(C)N(CCNC(=O)CCc1nnc2n(Cc3ccccc3)c(=O)c3ccccc3n12)Cc1ccco1 [Compound Z1169067733] | 3 | 
O=C(NCC1(N2CCCCC2)CCCCC1)c1ccc(S(=O)(=O)NC2CC2)cc1 [Compound Z87649109] | -3 | 
CC(C)(C)C1CCC(C(=O)Nc2nc(-c3ccccn3)cs2)CC1 (stereo not shown) [Compound Z29467784] | 7 | 
Cc1ccc(Nc2nccc(C(F)(F)F)n2)cc1S(=O)(=O)N(C)C [Compound Z318799754] | 6 | 
Cn1c(C(=O)Oc2ccc(NC(=O)c3ccco3)cc2)cc2ccccc21 [Compound Z762214972] | -1 | 
CCS(=O)(=O)Cc1cccc(S(=O)(=O)N(C)C)c1 [Compound Z416890194] | -10 | 
Cc1sc2nc(CN3CCOCC3)nc(Oc3ccc(NC(=O)c4ccc(C(C)(C)C)cc4)cc3)c2c1C [Compound Z31089732] | -13 | 
c1ccc(Cn2cccn2)c(CNc2cncc(-n3cccn3)n2)c1 [Compound Z432289626] | 41 | 18
Cc1cccc(-n2c(SCC(=O)c3cc(C)n(CC4CCCO4)c3C)nnc2N2CCOCC2)c1 (stereo not shown) [Compound Z92479374] | 3 | 
Cc1ccc(C(CNC(=O)c2cc(Cl)c[nH]2)N2CCOCC2)o1 (stereo not shown) [Compound Z254387106] | -10 | 
CNS(=O)(=O)c1cc(C(=O)N2CCN(Cc3cc(OC)ccc3OC)CC2)ccc1Cl [Compound Z26970092] | 28 | 
CN(C)S(=O)(=O)c1ccc(S(C)(=O)=O)cc1 [Compound Z300114426] | -8 | 
O=C(NCCSCc1ccccc1)Nc1ccc(NC(=O)c2ccco2)cc1 [Compound Z412775020] | 44 | -16
c1ccc(-n2ncc3c2CCNC3)cc1 [Compound Z409420032] | -11 | 
OC1CCC(Nc2ncnc3cccc(I)c23)CC1 (stereo not shown) [Compound Z1661333590] | 10 | 
CS(=O)(=O)c1ccc(F)c(S(C)(=O)=O)c1 [Compound Z652718652] | 31 | 
O=c1[nH]c2cc(Cl)ccc2c(-c2ccccc2)c1CN1CCCCC1 [Compound Z1980444406] | 1 | 

Structure (SMILES) | First screening IR (inhibition rate) [%] | Second screening IR (inhibition rate) [%]
CN(C)C(C)(C)CNC(=O)Cc1c[nH]c2cccc(Br)c12 [Compound Z1509620411] | -4 | 
N#CCCn1ncc2c(NC3CCCC(C(F)(F)F)C3)ncnc21 (stereo not shown) [Compound Z990858522] | -12 | 
O=C(CN1CCN(S(=O)(=O)c2cccc(Cl)c2Cl)CC1)NC1CCCCCC1 [Compound Z46278335] | -12 | 
NC(=O)c1ccc(C(=O)N2CCN(c3ccccn3)CC2)cc1 [Compound Z51750245] | 0 | 
O=C(Nc1nc2c(s1)CN(Cc1ccccc1)CC2)c1cc2c(nc3sccn32)s1 [Compound Z68435865] | -4 | 
Cc1ccc(C)c(S(=O)(=O)N(CC(=O)Nc2ccc(Oc3ccccc3)cc2)Cc2ccc(F)cc2)c1 [Compound Z26125608] | -6 | 
Nc1nc(N)nc(CSCc2ccc(-c3ccccc3)cc2)n1 [Compound Z99552008] | -6 | 
COc1cc(C(=O)NC(C)c2ccc(-n3ccnc3)cc2)cc(Cl)c1OC(C)C (stereo not shown) [Compound Z27306302] | 7 | 
Cc1cccnc1NC(=O)c1ccc(CSc2ccccc2)cc1 [Compound Z58490632] | -1 | 
O=C(CSc1nnc(COc2ccccc2Cl)n1-c1ccccc1)N1CCc2ccccc2C1 [Compound Z20151781] | -5 | 
O=C(OCCc1cn[nH]c1)c1ncoc1-c1ccco1 [Compound Z1463415737] | 57 | 
CCCCN(S(C)(=O)=O)S(=O)(=O)c1ccc(OC)cc1 [Compound Z85927834] | 1 | 
CC(C)N(CC#N)S(=O)(=O)c1ccccc1S(C)(=O)=O [Compound Z1411146082] | -35 | 
O=C(NCCNc1ncc(C(F)(F)F)cc1Cl)c1ccc2nc[nH]c2c1 [Compound Z101998542] | 25 | 
O=C(c1ccoc1)N1CCC(NCc2cn[nH]c2-c2ccc(F)cc2)CC1 [Compound Z401874244] | 36 | 
COc1ccc(CCNC(=O)C(C#N)c2nc3ccccc3nc2N2CCN(Cc3ccccc3)CC2)cc1 (stereo not shown) [Compound Z56851971] | 3 | 
CN(C1CCCCC1)S(=O)(=O)N1CCN(c2cn[nH]c(=O)c2Cl)CC1 [Compound Z357945110] | -10 | 
c1nc(N2CCCC2c2ccsc2)c2[nH]cnc2n1 (stereo not shown) [Compound Z1343239610] | 12 | 
Cc1ccccc1Nc1nc(N)nc(CSCC(=O)N2CCCCC2)n1 [Compound Z45354084] | 18 | 

Second part, the compound after the results:

First screening IR (inhibition rate) [%] | Second screening IR (inhibition rate) [%] | Structure (SMILES)
-16 |  | Cc1noc2ncc(C(=O)NCc3cccc(Cn4ccnc4)c3)cc12 [Compound Z395825976]
39 |  | Cc1cc(C(=O)Nc2ccc(F)c(F)c2)c2cnn(C(C)C)c2n1 [Compound Z203269322]
-4 |  | CCN(C(=O)CN(C)CC(=O)Nc1c(C)cc(C)cc1C)c1cccc2ccccc12 [Compound Z46455760]
7 |  | Cc1cc(=O)n2c3ccccc3n(CC(O)CN3CCN(CCOc4ccc(Cl)cc4)CC3)c2c1C#N (stereo not shown) [Compound Z57724322]
4 |  | CN(C)c1nc(N)nc(CSCC(=O)Nc2cccc(Cl)c2Cl)n1 [Compound Z197452730]
-12 |  | Cc1sc2nc(CN3CCC(C)CC3)nc(N3CCN(C(=O)c4ccccc4O)CC3)c2c1C [Compound Z381659312]
6 |  | CCCCOc1ccc(/C=C2/C(=O)Nc3ccc(Cl)cc32)cc1 [Compound Z44304381]
-12 |  | CCN(CC)CCn1c(NC(=O)c2cc3c(C)nn(-c4ccc(Cl)cc4)c3s2)nc2ccccc21 [Compound Z29249972]
58 |  | Cl.N#Cc1ccc(-c2cc(-c3ccccc3)c3cc(Cl)ccc3n2)cc1 [Compound Z48950825]
49 |  | CCn1c(CSc2nnc(-c3sc(C)nc3C)o2)nc2cc(S(=O)(=O)N(C)C)ccc21 [Compound Z275500628]
34 |  | Cc1cc(=O)[nH]c(C(C)Sc2ncn(-c3ccccc3)n2)n1 (stereo not shown) [Compound Z1415883225]
-2 |  | Cc1nn(C)c2nc(-c3ccccc3)cc(C(=O)Nc3ccc4c(c3)OCO4)c12 [Compound Z222976544]
70 | 21 | CC(C)(C)Cc1cc(NC(=O)c2cnn(-c3ccccc3Cl)c2)n[nH]1 [Compound Z1262045135]
-4 |  | CCN(CC)C(=O)c1ccc(NS(=O)(=O)c2cc3c(cc2Cl)NC(=O)C3)cc1 [Compound Z1037385644]
4 |  | Cl.Fc1cccc(F)c1-c1cc(-c2ccccc2)c2ccccc2n1 [Compound Z48951059]
-9 |  | N#Cc1c(NC(=O)COC(=O)c2cn(-c3ccccc3)nc2-c2cccnc2)oc(-c2ccccc2)c1-c1ccccc1 [Compound Z56941227]

First screening IR (inhibition rate) [%] | Second screening IR (inhibition rate) [%] | Structure (SMILES)
22 |  | Cc1c(C#N)c(NC(=O)CN2CCC(n3c(=O)[nH]c4ccccc43)CC2)n(Cc2cccs2)c1C [Compound Z130194258]
36 | -13 | Cl.Clc1ccc(-c2cc(-c3ccccc3)c3cc(Cl)ccc3n2)cc1 [Compound Z48950819]
-2 |  | CCc1ccccc1Nc1nc(N)nc(CSCC(=O)c2cc(C)n(C)c2C)n1 [Compound Z45360560]
-4 |  | Cc1nn(CCC#N)c2nc(-c3ccc(Br)cc3)cc(C(F)(F)F)c12 [Compound Z55874673]
12 |  | CC(=O)Nc1ccc(SCc2noc(-c3cccc(C)c3)n2)cc1 [Compound Z388276110]
-11 |  | COc1cc(NC(=O)c2cc(-c3ccccc3)nc3c2cnn3C(C)C)cc(OC)c1 [Compound Z52023681]
-2 |  | O=C(Cc1cccc(F)c1)NNC(=O)Cn1c(COc2ccc(Cl)cc2)nc2ccccc21 [Compound Z31930719]
-28 |  | O=C(NCCCN1CCCCC1)c1cc(-c2ccccc2)nc2c1cnn2Cc1ccncc1 [Compound Z167254296]
17 |  | COc1ccc(CN2C(=O)c3ccccc3C2=O)cc1C(=O)Nc1ccc(N2CCN(C)CC2)cc1C [Compound Z27972767]
8 |  | O=C(COc1ccc2ccccc2c1)Nc1nc2ccccc2[nH]1 [Compound Z27666510]
27 |  | CC(C)n1ncc2c(C(=O)N3CCN(c4ccc(F)cc4)CC3)cc(-c3ccccc3)nc21 [Compound Z52005969]
-12 |  | CCN(CC)C(=O)c1cc(-c2cc(C)oc2C)nc2c1cnn2C(C)C [Compound Z223881508]
-1 |  | COc1cccc(NC(=O)COc2ncnc3ccccc23)c1 [Compound Z18537695]
-4 |  | Cc1cccc(-c2nc(NC(=O)C3Cc4cc(F)ccc4O3)n[nH]2)n1 (stereo not shown) [Compound Z1279679753]
-7 |  | CCOC(=O)c1cc(-c2ccc(C#N)cc2)nc2c1c(C)nn2CCC#N [Compound Z56631499]
